Assay results as given in US6218379A, “Tricyclic carbacephems” (Hoffmann-la Roche Inc., priority 1996, dated 2001).
≈ marks a conversion by molar mass, not a printed value. Where a name gives a salt, the structure may show the parent alone.

Columns and labels:
[1] = test system: Staphylococcus aureus 887; test: Antibacterial activity in vitro (MIC) against Staphylococcus aureus 887; type: cell-based; conditions: read-out: MIC S. aureus 887
Description: (§1) The minimum inhibitory concentration in vitro (MIC in μg/ml) of a compound of formula I against Citrobacter freundii 1982 and Staphylococcus aureus 887 is measured and compiled in Table 2.

[2] = test system: Citrobacter freundii 1982; test: Antibacterial activity in vitro (MIC) against Citrobacter freundii 1982; type: cell-based; conditions: read-out: MIC C. freundii 1982
Description: as §1

SMILES | MIC [1] [µg/mL] | MIC [2] [µg/mL]
O=C(O)C1=C(/C=C/c2ccccc2)C[C@@H]2CN[C@@H]3C(=O)N1[C@H]23 [Example 49, (E)-(1aS,3aR,6bR)-1-Oxo-5-styryl-1a,2,3,3a,4,6b-hexahydro-1H-2,6a-diaza-cyclobut[cd]indene-6-carboxylic acid trifluoroacetate] | 8 | 64
O=C(O)C1=C(/C=C/c2ccccn2)C[C@@H]2CN[C@@H]3C(=O)N1[C@H]23 [Example 50, (E)-(1aS,3aR,6bR)-1-Oxo-5-(2-pyridin-2-yl-vinyl)-1a,2,3,3a,4,6b-hexahydro-1H-2,6a-diaza-cyclobut[cd]indene-6-carboxylic acid trifluoroacetate (1:1.58)] | 64 | 64
O=C(O)C1=C(/C=C/c2ccncc2)C[C@@H]2CN[C@@H]3C(=O)N1[C@H]23 [Example 51, (E)-(1aS,3aR,6bR)-1-Oxo-5-(2-pyridin-4-yl-vinyl)-1a,2,3,3a,4,6b-hexahydro-1H-2,6a-diaza-cyclobut[cd]indene-6-carboxylic acid trifluoroacetate (1:1.45)] | 4 | 64
O=C(O)C1=C(/C=C/c2ccc(O)cc2)C[C@@H]2CN[C@@H]3C(=O)N1[C@H]23 [Example 52, (E)-(1aS,3aR,6bR)-1-Oxo-5-[2-(4-hydroxy-phenyl)-vinyl]-1a,2,3,3a,4,6b-hexahydro-1H-2,6a-diaza-cyclobut[cd]indene-6-carboxylic acid trifluoroacetate (1:0.83)] | 4 | 64
O=C(O)C1=C(/C=C/c2cccnc2)C[C@@H]2CN[C@@H]3C(=O)N1[C@H]23 [Example 53, (E)-(1aS,3aR,6bR)-1-Oxo-5-(2-pyridin-3-yl-vinyl)-1a,2,3,3a,4,6b-hexahydro-1H-2,6a-diaza-cyclobut[cd]indene-6-carboxylic acid trifluoroacetate (1:1.5)] | 2 | 64
O=C(O)C1=C(/C=C/c2ccc3ccccc3n2)C[C@@H]2CN[C@@H]3C(=O)N1[C@H]23 [Example 54, (E)-(1aS,3aR,6bR)-1-Oxo-5-(2-quinolin-2-yl-vinyl)-1a,2,3,3a,4,6b-hexahydro-1H-2,6a-diaza-cyclobut[cd]indene-6-carboxylic acid trifluoroacetate (1:1.5)] | 64 | 64
O=C(O)C1=C(/C=C/c2cnc3ccccc3c2)C[C@@H]2CN[C@@H]3C(=O)N1[C@H]23 [Example 55, (E)-(1aS,3aR,6bR)-1-Oxo-5-(2-quinolin-3-yl-vinyl)-1a,2,3,3a,4,6b-hexahydro-1H-2,6a-diaza-cyclobut[cd]indene-6-carboxylic acid trifluoroacetate (1:1.4)] | 4 | 64
O=CN1C[C@H]2CC(/C=C/c3ccccn3)=C(C(=O)O)N3C(=O)[C@@H]1[C@@H]23 [Example 56, (E)-(1aS,3aR,6bR)-2-Formyl-1-oxo-5-(2-pyridin-2-yl-vinyl)-1a,2,3,3a,4,6b-hexahydro-1H-2,6a-diaza-cyclobut[cd]indene-6-carboxylic acid sodium salt (1:1)] | 1 | 4
CC(=O)N1C[C@H]2CC(/C=C/c3ccccc3)=C(C(=O)O)N3C(=O)[C@@H]1[C@@H]23 [Example 57, (E)-(1aS,3aR,6bR)-2-Acetyl-1-oxo-5-styryl-1a,2,3,3a,4,6b-hexahydro-1H-2,6a-diaza-cyclobut[cd]indene-6-carboxylic acid sodium salt (1:1)] | 4 | 64
CC(=O)N1C[C@H]2CC(/C=C/c3ccccn3)=C(C(=O)O)N3C(=O)[C@@H]1[C@@H]23 [Example 58, (E)-(1aS,3aR,6bR)-2-Acetyl-1-oxo-5-(2-pyridin-2-yl-vinyl)-1a,2,3,3a,4,6b-hexahydro-1H-2,6a-diaza-cyclobut[cd]indene-6-carboxylic acid sodium salt (1:1)] | 2 | 4
CC(=O)N1C[C@H]2CC(/C=C/c3ccncc3)=C(C(=O)O)N3C(=O)[C@@H]1[C@@H]23 [Example 59, (E)-(1aS,3aR,6bR)-2-Acetyl-1-oxo-5-(2-pyridin-4-yl-vinyl)-1a,2,3,3a,4,6b-hexahydro-1H-2,6a-diaza-cyclobut[cd]indene-6-carboxylic acid sodium salt (1:1)] | 1 | 32
CC(=O)N1C[C@H]2CC(/C=C/c3ccc(O)cc3)=C(C(=O)O)N3C(=O)[C@@H]1[C@@H]23 [Example 60, (E)-(1aS,3aR,6bR)-2-Acetyl-1-oxo-5-[2-(4-hydroxy-phenyl)-vinyl]-1a,2,3,3a,4,6b-hexahydro-1H-2,6a-diaza-cyclobut[cd]indene-6-carboxylic acid sodium salt (1:1)] | 2 | 32
CC(=O)N1C[C@H]2CC(/C=C/c3ccc4ccccc4n3)=C(C(=O)O)N3C(=O)[C@@H]1[C@@H]23 [Example 61, (E)-(1aS,3aR,6bR)-2-Acetyl-1-oxo-5-(2-quinolin-2-yl-vinyl)-1a,2,3,3a,4,6b-hexahydro-1H-2,6a-diaza-cyclobut[cd]indene-6-carboxylic acid sodium salt (1:1)] | 64 | 64

The next lines start with the values.

MIC [1] [µg/mL] | MIC [2] [µg/mL] | SMILES
2 | 8 | CC(=O)N1C[C@H]2CC(/C=C/c3cccnc3)=C(C(=O)O)N3C(=O)[C@@H]1[C@@H]23 [Example 62, (E)-(1aS,3aR,6bR)-2-Acetyl-1-oxo-5-(2-pyridin-3-yl-vinyl)-1a,2,3,3a,4,6b-hexahydro-1H-2,6a-diaza-cyclobut[cd]indene-6-carboxylic acid sodium salt (1:1)]
0.5 | 64 | CC(=O)N1C[C@H]2CC(/C=C/c3cnc4ccccc4c3)=C(C(=O)O)N3C(=O)[C@@H]1[C@@H]23 [Example 63, (E)-(1aS,3aR,6bR)-2-Acetyl-1-oxo-5-(2-quinolin-3-yl-vinyl)-1a,2,3,3a,4,6b-hexahydro-1H-2,6a-diaza-cyclobut[cd]indene-6-carboxylic acid sodium salt (1:1)]
2 | 32 | O=C(O)C1=C(/C=C/c2ccccn2)C[C@@H]2CN(C(=O)C(F)(F)F)[C@@H]3C(=O)N1[C@H]23 [Example 64, (E)-(1aS,3aR,6bR)-1-Oxo-5-(2-pyridin-2-yl-vinyl)-2-trifluoroacetyl-1a,2,3,3a,4,6b-hexahydro-1H-2,6a-diaza-cyclobut[cd]indene-6-carboxylic acid sodium salt (1:1)]
0.25 (≈ 0.582 µM) | 8 (≈ 18.6 µM) | CC(=O)N1C[C@H]2CC(/C=C/c3ccc[n+](Cc4ccccc4)c3)=C(C(=O)[O-])N3C(=O)[C@@H]1[C@@H]23 [Example 66, (E)-(1aS,3aR,6bR)-2-Acetyl-5-[2-(1-benzyl-pyridin-1-ium-3-yl)-vinyl]-1-oxo-1a,2,3,3a,4,6b-hexahydro-1H-2,6a-diaza-cyclobut[cd]indene-6-carboxylate]
0.25 (≈ 0.631 µM) | 16 (≈ 40.4 µM) | CC(=O)N1C[C@H]2CC(/C=C/c3ccc[n+](CC(N)=O)c3)=C(C(=O)[O-])N3C(=O)[C@@H]1[C@@H]23 [Example 67, (E)-(1aS,3aR,6bR)-2-Acetyl-5-[2-(1-carbamoylmethyl-pyridin-1-ium-3-yl)-vinyl]-1-oxo-1a,2,3,3a,4,6b-hexahydro-1H-2,6a-diaza-cyclobut[cd]indene-6-carboxylate]
0.5 (≈ 1.12 µM) | 16 (≈ 35.8 µM) | CC(=O)N1C[C@H]2CC(/C=C/c3cc4ccccc4[n+](CC(N)=O)c3)=C(C(=O)[O-])N3C(=O)[C@@H]1[C@@H]23 [Example 68, (E)-(1aS,3aR,6bR)-2-Acetyl-5-[2-(1-carbamoylmethyl-quinolin-1-ium-3-yl)-vinyl]-1-oxo-1a,2,3,3a,4,6b-hexahydro-1H-2,6a-diaza-cyclobut[cd]indene-6-carboxylate]
0.25 (≈ 0.549 µM) | 32 (≈ 70.3 µM) | CC(=O)N1C[C@H]2CC(/C=C/c3ccc[n+](C/C=C/c4ccccc4)c3)=C(C(=O)[O-])N3C(=O)[C@@H]1[C@@H]23 [Example 69, (1aS,3aR,6bR)-2-Acetyl-1-oxo-5-[(E)-2-[1-[(E)-3-phenylallyl]-pyridin-1-ium-3-yl)-vinyl]-1a,2,3,3a,4,6b-hexahydro-1H-2,6a-diaza-cyclobut[cd]indene-6-carboxylate]
0.25 (≈ 0.512 µM) | 8 (≈ 16.4 µM) | CC(=O)N1C[C@H]2CC(/C=C/c3ccc[n+](CC(=O)Nc4ccc(O)cc4)c3)=C(C(=O)[O-])N3C(=O)[C@@H]1[C@@H]23 [Example 70, (E)-(1aS,3aR,6bR)-2-Acetyl-5-[2-[1-[(4-hydroxyphenylcarbamoyl)-methyl]-pyridin-1-ium-3-yl)-vinyl]-1-oxo-1a,2,3,3a,4,6b-hexahydro-1H-2,6a-diaza-cyclobut[cd]indene-6-carboxylate]
0.5 (≈ 0.974 µM) | 64 (≈ 125 µM) | CC(=O)N1C[C@H]2CC(/C=C/c3ccc[n+](Cc4ccc(OC(F)(F)F)cc4)c3)=C(C(=O)[O-])N3C(=O)[C@@H]1[C@@H]23 [Example 71]
64 (≈ 161 µM) | 64 (≈ 161 µM) | CC(=O)N1C[C@H]2CC(/C=C/c3cccc[n+]3CC(N)=O)=C(C(=O)[O-])N3C(=O)[C@@H]1[C@@H]23 [Example 72, (E)-(1aS,3aR,6bR)-2-Acetyl-5-[2-(1-carbamoylmethyl-pyridin-1-ium-2-yl)-vinyl]-1-oxo-1a,2,3,3a,4,6b-hexahydro-1H-2,6a-diaza-cyclobut[cd]indene-6-carboxylate]
